# Experimental data published in patent US10016438B2, “Bicyclic heterocycles as FGFR4 inhibitors” (Incyte Corporation, priority 2015, dated 2018).
# Molecular target: FGFR4 (Homo sapiens (Human), UniProt P22455)
# Test: FGFR Enzymatic Assay (FRET peptide phosphorylation), FGFR4
# Details: IC50 ratio showing FGFR4 selectivity
# [1] = pre-incubated for 5 to 10 minutes
# Description: The enzymes were purchased from Millipore or Invitrogen.
# GraphPad prism3 was used to analyze the data. The IC50 values were derived by fitting the data to the equation for a sigmoidal dose-response with a variable slope. Y=Bottom+(Top−Bottom)/(1+10^((Log IC50−X)*HillSlope)) where X is the logarithm of concentration and Y is the response.
# Chain of FGFR4 (P22455 22-802): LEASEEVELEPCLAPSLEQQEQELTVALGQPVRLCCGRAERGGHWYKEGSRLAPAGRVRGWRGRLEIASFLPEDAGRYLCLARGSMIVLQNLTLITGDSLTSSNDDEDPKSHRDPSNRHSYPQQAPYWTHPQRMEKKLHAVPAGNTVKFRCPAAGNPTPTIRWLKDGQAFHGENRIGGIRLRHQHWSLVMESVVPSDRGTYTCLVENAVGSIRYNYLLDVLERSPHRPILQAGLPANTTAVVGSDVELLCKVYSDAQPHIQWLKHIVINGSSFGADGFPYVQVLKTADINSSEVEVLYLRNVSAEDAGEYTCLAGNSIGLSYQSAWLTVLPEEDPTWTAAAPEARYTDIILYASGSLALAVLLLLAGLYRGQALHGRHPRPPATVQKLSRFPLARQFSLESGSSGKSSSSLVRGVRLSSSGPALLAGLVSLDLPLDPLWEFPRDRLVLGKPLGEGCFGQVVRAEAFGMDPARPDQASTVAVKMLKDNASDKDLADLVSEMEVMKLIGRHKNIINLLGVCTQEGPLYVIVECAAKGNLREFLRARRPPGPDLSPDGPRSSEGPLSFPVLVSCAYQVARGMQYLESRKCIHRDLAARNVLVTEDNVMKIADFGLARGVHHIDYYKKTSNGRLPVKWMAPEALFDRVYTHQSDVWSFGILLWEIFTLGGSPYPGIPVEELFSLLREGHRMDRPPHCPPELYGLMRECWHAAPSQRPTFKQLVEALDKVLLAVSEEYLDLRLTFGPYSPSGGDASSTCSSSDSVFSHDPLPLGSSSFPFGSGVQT
SMILES,FGFR1/FGFR4 [1],FGFR2/FGFR4 [1],FGFR3/FGFR4 [1],FGFR1/FGFR4 (pre-incubated for 4 hours),FGFR2/FGFR4 (pre-incubated for 4 hours),FGFR3/FGFR4 (pre-incubated for 4 hours)
"C=CC(=O)Nc1ccc(C#N)c(-c2cc3c(cn2)CN(c2c(F)c(OC)cc(OC)c2F)C(=O)C32CC2)c1 [Example 5, N-(4-cyano-3-(2′-(2,6-difluoro-3,5-dimethoxyphenyl)-3′-oxo-2′,3′-dihydro-1′H-spiro[cyclopropane-1,4′-[2,7]naphthyridine]-6′-yl)phenyl)acrylamide]",>100,>100,>100,>100,>100,>100
"C=CC(=O)N1CCCC(c2cc3c(cn2)CN(c2c(F)c(OC)cc(OC)c2F)C(=O)C32CC2)C1 (stereo not drawn) [Example 8, 6′-(1-acryloylpiperidin-3-yl)-2′-(2,6-difluoro-3,5-dimethoxyphenyl)-1′H-spiro[cyclopropane-1,4′-[2,7]naphthyridin]-3′(2′H)-one]",>5,>1,>1,>10,>2,>2
"C=CC(=O)Nc1cc(-c2cc3c(cn2)CN(c2c(F)c(OC)cc(OC)c2F)C(=O)C32CC2)cc(N2CCOCC2)c1 [Example 10, N-{3-[2′-(2,6-difluoro-3,5-dimethoxyphenyl)-3′-oxo-2′,3′-dihydro-1′H-spiro[cyclopropane-1,4′-[2,7]naphthyridin]-6′-yl]-5-morpholin-4-ylphenyl}acrylamide]",>100,>100,>100,>100,>100,>100
"C=CC(=O)Nc1cc(CN2CCOCC2)cc(-c2cc3c(cn2)CN(c2c(F)c(OC)cc(OC)c2F)C(=O)C32CC2)c1 [Example 11, N-[3-[2′-(2,6-difluoro-3,5-dimethoxyphenyl)-3′-oxo-2′,3′-dihydro-1′H-spiro[cyclopropane-1,4′-[2,7]naphthyridin]-6′-yl]-5-(morpholin-4-ylmethyl)phenyl]acrylamide]",>100,>100,>100,>100,>100,>100
"C=CC(=O)Nc1cc(-c2cc3c(cn2)CN(c2c(F)c(OC)cc(OC)c2F)C(=O)C32CC2)ccc1CN1CCOCC1 [Example 12, N-(5-(2′-(2,6-difluoro-3,5-dimethoxyphenyl)-3′-oxo-2′,3′-dihydro-1′H-spiro[cyclopropane-1,4′-[2,7]naphthyridine]-6′-yl)-2-(morpholinomethyl)phenyl)acrylamide]",>10,>1,>1,>100,>25,>10
"C=CC(=O)Nc1cnn(C2CCOCC2)c1-c1cc2c(cn1)CN(c1c(F)c(OC)cc(OC)c1F)C(=O)C21CC1 [Example 18, N-(5-(2′-(2,6-difluoro-3,5-dimethoxyphenyl)-3′-oxo-2′,3′-dihydro-1′H-spiro[cyclopropane-1,4′-[2,7]naphthyridine]-6′-yl)-1-(tetrahydro-2H-pyran-4-yl)-1H-pyrazol-4-yl)acrylamide]",,,,>100,>50,>100
"C=CC(=O)Nc1cnn(CCN2CCOCC2)c1-c1cc2c(cn1)CN(c1c(F)c(OC)cc(OC)c1F)C(=O)C21CC1 [Example 19, N-(5-(2′-(2,6-difluoro-3,5-dimethoxyphenyl)-3′-oxo-2′,3′-dihydro-1′H-spiro[cyclopropane-1,4′-[2,7]naphthyridine]-6′-yl)-1-(2-morpholinoethyl)-1H-pyrazol-4-yl)acrylamide]",,,,>100,>100,>100
"C=CC(=O)Nc1cnn(Cc2ccncc2)c1-c1cc2c(cn1)CN(c1c(F)c(OC)cc(OC)c1F)C(=O)C21CC1 [Example 21, N-(5-(2′-(2,6-difluoro-3,5-dimethoxyphenyl)-3′-oxo-2′,3′-dihydro-1′H-spiro[cyclopropane-1,4′-[2,7]naphthyridine]-6′-yl)-1-(pyridin-4-ylmethyl)-1H-pyrazol-4-yl)acrylamide]",,,,>100,>50,>100
"C=CC(=O)Nc1cnn(Cc2cccnc2)c1-c1cc2c(cn1)CN(c1c(F)c(OC)cc(OC)c1F)C(=O)C21CC1 [Example 22, N-(5-(2′-(2,6-difluoro-3,5-dimethoxyphenyl)-3′-oxo-2′,3′-dihydro-1′H-spiro[cyclopropane-1,4′-[2,7]naphthyridine]-6′-yl)-1-(pyridin-3-ylmethyl)-1H-pyrazol-4-yl)acrylamide]",,,,>100,>100,>100
"C=CC(=O)Nc1cnn(Cc2ncn(C)n2)c1-c1cc2c(cn1)CN(c1c(F)c(OC)cc(OC)c1F)C(=O)C21CC1 [Example 23, N-(5-(2′-(2,6-difluoro-3,5-dimethoxyphenyl)-3′-oxo-2′,3′-dihydro-1′H-spiro[cyclopropane-1,4′-[2,7]naphthyridine]-6′-yl)-1-((1-methyl-1H-1,2,4-triazol-3-yl)methyl)-1H-pyrazol-4-yl)acrylamide]",,,,>100,>100,>100
"C=CC(=O)Nc1cnn(CC2CCOCC2)c1-c1cc2c(cn1)CN(c1c(F)c(OC)cc(OC)c1F)C(=O)C21CC1 [Example 24, N-(5-(2′-(2,6-difluoro-3,5-dimethoxyphenyl)-3′-oxo-2′,3′-dihydro-1′H-spiro[cyclopropane-1,4′-[2,7]naphthyridine]-6′-yl)-1-((tetrahydro-2H-pyran-4-yl)methyl)-1H-pyrazol-4-yl)acrylamide]",,,,>100,>100,>100
"C=CC(=O)Nc1cnn(Cc2ccon2)c1-c1cc2c(cn1)CN(c1c(F)c(OC)cc(OC)c1F)C(=O)C21CC1 [Example 25, N-(5-(2′-(2,6-difluoro-3,5-dimethoxyphenyl)-3′-oxo-2′,3′-dihydro-1′H-spiro[cyclopropane-1,4′-[2,7]naphthyridine]-6′-yl)-1-(isoxazol-3-ylmethyl)-1H-pyrazol-4-yl)acrylamide]",,,,>100,>100,>100
"C=CC(=O)Nc1cnn(Cc2ccnn2C)c1-c1cc2c(cn1)CN(c1c(F)c(OC)cc(OC)c1F)C(=O)C21CC1 [Example 26, N-(5-(2′-(2,6-difluoro-3,5-dimethoxyphenyl)-3′-oxo-2′,3′-dihydro-1′H-spiro[cyclopropane-1,4′-[2,7]naphthyridine]-6′-yl)-1-((1-methyl-1H-pyrazol-5-yl)methyl)-1H-pyrazol-4-yl)acrylamide]",,,,>100,>50,>100

# Results, then the compound that gave them:
FGFR1/FGFR4 [1],FGFR2/FGFR4 [1],FGFR3/FGFR4 [1],FGFR1/FGFR4 (pre-incubated for 4 hours),FGFR2/FGFR4 (pre-incubated for 4 hours),FGFR3/FGFR4 (pre-incubated for 4 hours),SMILES
>100,>100,>100,>100,>100,>100,"C=CC(=O)Nc1ccc(C)c(-c2cc3c(cn2)CN(c2c(F)c(OC)cc(OC)c2F)C(=O)C32CC2)c1 [Example 2, N-(3-(2′-(2,6-difluoro-3,5-dimethoxyphenyl)-3′-oxo-2′,3′-dihydro-1′H-spiro[cyclopropane-1,4′-[2,7]naphthyridine]-6′-yl)-4-methylphenyl)acrylamide]"
>100,>100,>100,>100,>100,>100,"C=CC(=O)Nc1cc(-c2cc3c(cn2)CN(c2c(F)c(OC)cc(OC)c2F)C(=O)C32CC2)c(C)cc1F [Example 6, N-(5-(2′-(2,6-difluoro-3,5-dimethoxyphenyl)-3′-oxo-2′,3′-dihydro-1′H-spiro[cyclopropane-1,4′-[2,7]naphthyridine]-6′-yl)-2-fluoro-4-methylphenyl)acrylamide]"
>100,>100,>100,>100,>100,>100,"C=CC(=O)Nc1cnc(C)c(-c2cc3c(cn2)CN(c2c(F)c(OC)cc(OC)c2F)C(=O)C32CC2)c1 [Example 7, N-(5-(2′-(2,6-difluoro-3,5-dimethoxyphenyl)-3′-oxo-2′,3′-dihydro-1′H-spiro[cyclopropane-1,4′-[2,7]naphthyridine]-6′-yl)-6-methylpyridin-3-yl)acrylamide]"
,,,>100,>100,>100,"C=CC(=O)Nc1cn[nH]c1-c1cc2c(cn1)CN(c1c(F)c(OC)cc(OC)c1F)C(=O)C21CC1 [Example 14, N-(5-(2′-(2,6-difluoro-3,5-dimethoxyphenyl)-3′-oxo-2′,3′-dihydro-1′H-spiro[cyclopropane-1,4′-[2,7]naphthyridine]-6′-yl)-1H-pyrazol-4-yl)acrylamide]"
,,,>100,>100,>100,"C=CC(=O)Nc1cnn(CCOC)c1-c1cc2c(cn1)CN(c1c(F)c(OC)cc(OC)c1F)C(=O)C21CC1 [Example 15, N-(5-(2′-(2,6-difluoro-3,5-dimethoxyphenyl)-3′-oxo-2′,3′-dihydro-1′H-spiro[cyclopropane-1,4′-[2,7]naphthyridine]-6′-yl)-1-(2-methoxyethyl)-1H-pyrazol-4-yl)acrylamide]"
,,,>100,>100,>100,"C=CC(=O)Nc1cnn(CCOCC)c1-c1cc2c(cn1)CN(c1c(F)c(OC)cc(OC)c1F)C(=O)C21CC1 [Example 16, N-(5-(2′-(2,6-difluoro-3,5-dimethoxyphenyl)-3′-oxo-2′,3′-dihydro-1′H-spiro[cyclopropane-1,4′-[2,7]naphthyridine]-6′-yl)-1-(2-ethoxyethyl)-1H-pyrazol-4-yl)acrylamide]"
,,,>100,>100,>100,"C=CC(=O)Nc1cnn(CCO)c1-c1cc2c(cn1)CN(c1c(F)c(OC)cc(OC)c1F)C(=O)C21CC1 [Example 17, N-(5-(2′-(2,6-difluoro-3,5-dimethoxyphenyl)-3′-oxo-2′,3′-dihydro-1′H-spiro[cyclopropane-1,4′-[2,7]naphthyridine]-6′-yl)-1-(2-hydroxyethyl)-1H-pyrazol-4-yl)acrylamide]"
